The record followed here is patent US20250154141A1 (University of Florida Research Foundation, Incorporated, priority 2021, published 2025).

Where two headings read alike, the source gives them in different places. Where only a bound is given, the exact number is not on record here.

The subject of assay [1] is MOLT-4. As to the kind of experiment: Cell viability assay (MTS) in MOLT-4 cells. Format: cell-based. The note with it: Homo sapiens, MOLT-4. The procedure: (§1) Acute lymphoblastic leukemia cells (MOLT-4 and RS4; 11) were incubated with increasing concentrations of Bcl-xL degraders for 48 h. Cell viability was measured by tetrazolium-based MTS assay.
Assay [2] concerns RS4; 11. Briefly: Cell viability assay (MTS) in RS4; 11 cells. It is filed as cell-based. On the set-up: Anti-Cancer Activity IC50 (48 hr) RS4; 11: scale not given here. The settings on record: for IC50: Homo sapiens, RS4-11. The procedure: as §1
The mark [3] stands for this setting: Table 2, 48 hr, MTS, read-out: Anti-Cancer Activity IC50 (48 hr) MOLT-4.
The mark [4] stands for this setting: Table 2, 48 hr, MTS, read-out: Anti-Cancer Activity IC50 (48 hr) RS4, 11.

`Cc1ncsc1-c1ccc([C@H](C)NC(=O)[C@@H]2C[C@@H](O)CN2C(=O)[C@@H](NC(=O)CCCCCCC(=O)N2CCN(CC3(C)CCC(c4ccc(Cl)cc4)=C(CN4CCN(c5ccc(C(=O)NS(=O)(=O)c6ccc(N[C@H](CCN(C)C)CSc7ccccc7)c([N+](=O)[O-])c6)cc5)CC4)C3)CC2)C(C)(C)C)cc1` (stereo partly drawn) [Compound 34, (2S,4R)-1-((2S)-2-(8-(4-((4′-chloro-6-((4-(4-(((4-(((R)-4-(dimethylamino)-1-(phenylthio)butan-2-yl)amino)-3-nitrophenyl)sulfonyl)carbamoyl)phenyl)piperazin-1-yl)methyl)-4-methyl-2,3,4,5-tetrahydro-[1,1′-biphenyl]-4-yl)methyl)piperazin-1-yl)-8-oxooctanamido)-3,3-dimethylbutanoyl)-4-hydroxy-N—((S)-1-(4-(4-methylthiazol-5-yl)phenyl)ethyl)pyrrolidine-2-carboxamide]: the IC50 in assay [1] (setting [3]) and in assay [2] (setting [4]) was under 20 nM in each case.
Consider `Cc1ncsc1-c1ccc([C@H](C)NC(=O)[C@@H]2C[C@@H](O)CN2C(=O)[C@@H](NC(=O)CCCCCCC(=O)N2CCN(CC3(C)CCC(c4ccc(Cl)cc4)=C(CN4CCN(c5ccc(C(=O)NS(=O)(=O)c6ccc(N[C@H](CCN(C)C7CC7)CSc7ccccc7)c([N+](=O)[O-])c6)cc5)CC4)C3)CC2)C(C)(C)C)cc1` (stereo partly drawn) [Compound 35, (2S,4R)-1-((2S)-2-(8-(4-((4′-chloro-6-((4-(4-(((4-(((R)-4-(cyclopropyl(methyl)amino)-1-(phenylthio)butan-2-yl)amino)-3-nitrophenyl)sulfonyl)carbamoyl)phenyl)piperazin-1-yl)methyl)-4-methyl-2,3,4,5-tetrahydro-[1,1′-biphenyl]-4-yl)methyl)piperazin-1-yl)-8-oxooctanamido)-3,3-dimethylbutanoyl)-4-hydroxy-N—((S)-1-(4-(4-methylthiazol-5-yl)phenyl)ethyl)pyrrolidine-2-carboxamide], for which the IC50 in assay [1] (setting [3]) was in the range of 20 to 100 nM. In assay [2] (Table 2, 48 hr, MTS), the “Anti-Cancer Activity IC50 (48 hr) RS4; 11” value is given as “+ ++”.
Take `Cc1ncsc1-c1ccc([C@H](C)NC(=O)[C@@H]2C[C@@H](O)CN2C(=O)[C@@H](NC(=O)CCCCCCC(=O)N2CCN(CC3(C)CCC(c4ccc(Cl)cc4)=C(CN4CCN(c5ccc(C(=O)NS(=O)(=O)c6ccc(N[C@H](CCN(C)C7CCC7)CSc7ccccc7)c([N+](=O)[O-])c6)cc5)CC4)C3)CC2)C(C)(C)C)cc1` (stereo partly drawn) [Compound 36, (2S,4R)-1-((2S)-2-(8-(4-((4′-chloro-6-((4-(4-(((4-(((R)-4-(cyclobutyl(methyl)amino)-1-(phenylthio)butan-2-yl)amino)-3-nitrophenyl)sulfonyl)carbamoyl)phenyl)piperazin-1-yl)methyl)-4-methyl-2,3,4,5-tetrahydro-[1,1′-biphenyl]-4-yl)methyl)piperazin-1-yl)-8-oxooctanamido)-3,3-dimethylbutanoyl)-4-hydroxy-N—((S)-1-(4-(4-methylthiazol-5-yl)phenyl)ethyl)pyrrolidine-2-carboxamide]: the IC50 in assay [1] (setting [3]) was 20 to 100 nM. Also, in assay [2] (Table 2, 48 hr, MTS), the “Anti-Cancer Activity IC50 (48 hr) RS4; 11” value is on record as “++ ++”.
Consider `Cc1ncsc1-c1ccc([C@H](C)NC(=O)[C@@H]2C[C@@H](O)CN2C(=O)[C@@H](NC(=O)CCCCCCC(=O)N2CCN(C[C@]3(C)CCC(c4ccc(Cl)cc4)=C(CN4CCN(c5ccc(C(=O)NS(=O)(=O)c6ccc(N[C@H](CCN7CCCCC7)CSc7ccccc7)c([N+](=O)[O-])c6)cc5)CC4)C3)CC2)C(C)(C)C)cc1` [Compound 40, (2S,4R)-1-((S)-2-(8-(4-(((R)-4′-chloro-4-methyl-6-((4-(4-(((3-nitro-4-(((R)-1-(phenylthio)-4-(piperidin-1-yl)butan-2-yl)amino)phenyl)sulfonyl)carbamoyl)phenyl)piperazin-1-yl)methyl)-2,3,4,5-tetrahydro-[1,1′-biphenyl]-4-yl)methyl)piperazin-1-yl)-8-oxooctanamido)-3,3-dimethylbutanoyl)-4-hydroxy-N—((S)-1-(4-(4-methylthiazol-5-yl)phenyl)ethyl)pyrrolidine-2-carboxamide], for which the IC50 in assay [1] (setting [3]) and in assay [2] (setting [4]) was under 20 nM each time.
As for `Cc1ncsc1-c1ccc([C@H](C)NC(=O)[C@@H]2C[C@@H](O)CN2C(=O)[C@@H](NC(=O)CCCCCCC(=O)N2CCN(C[C@]3(C)CCC(c4ccc(Cl)cc4)=C(CN4CCN(c5ccc(C(=O)NS(=O)(=O)c6ccc(N[C@H](CCN(C)CCO)CSc7ccccc7)c([N+](=O)[O-])c6)cc5)CC4)C3)CC2)C(C)(C)C)cc1` [Compound 42, (2S,4R)-1-((S)-2-(8-(4-(((R)-4′-chloro-6-((4-(4-(((4-(((R)-4-((2-hydroxyethyl)(methyl)amino)-1-(phenylthio)butan-2-yl)amino)-3-nitrophenyl)sulfonyl)carbamoyl)phenyl)piperazin-1-yl)methyl)-4-methyl-2,3,4,5-tetrahydro-[1,1′-biphenyl]-4-yl)methyl)piperazin-1-yl)-8-oxooctanamido)-3,3-dimethylbutanoyl)-4-hydroxy-N—((S)-1-(4-(4-methylthiazol-5-yl)phenyl)ethyl)pyrrolidine-2-carboxamide], the IC50 was 20 to 100 nM in assay [1] (setting [3]) and under 20 nM in assay [2] (setting [4]).
`CCN(CCO)CC[C@H](CSc1ccccc1)Nc1ccc(S(=O)(=O)NC(=O)c2ccc(N3CCN(CC4=C(c5ccc(Cl)cc5)CCC(C)(CN5CCN(C(=O)CCCCCCC(=O)N[C@H](C(=O)N6C[C@H](O)C[C@H]6C(=O)N[C@@H](C)c6ccc(-c7scnc7C)cc6)C(C)(C)C)CC5)C4)CC3)cc2)cc1[N+](=O)[O-]` (stereo partly drawn) [Compound 43, (2S,4R)-1-((2S)-2-(8-(4-((4′-chloro-6-((4-(4-(((4-(((R)-4-(ethyl(2-hydroxyethyl)amino)-1-(phenylthio)butan-2-yl)amino)-3-nitrophenyl)sulfonyl)carbamoyl)phenyl)piperazin-1-yl)methyl)-4-methyl-2,3,4,5-tetrahydro-[1,1′-biphenyl]-4-yl)methyl)piperazin-1-yl)-8-oxooctanamido)-3,3-dimethylbutanoyl)-4-hydroxy-N—((S)-1-(4-(4-methylthiazol-5-yl)phenyl)ethyl)pyrrolidine-2-carboxamide]: the IC50 was 20 to 100 nM in assay [1] (setting [3]); 78.5 nM in assay [1] (Table 5, 48 h, read-out: MOLT-4 48 h IC50); under 20 nM in assay [2] (setting [4]); 7.3 nM in assay [2] (Table 5, 48 h, read-out: RS4 48 h IC50).
Take `Cc1ncsc1-c1ccc([C@H](C)NC(=O)[C@@H]2C[C@@H](O)CN2C(=O)[C@@H](NC(=O)CCCCCCC(=O)N2CCN(CC3(C)CCC(c4ccc(Cl)cc4)=C(CN4CCN(c5ccc(C(=O)NS(=O)(=O)c6ccc(N[C@H](CCN(CCO)C7CC7)CSc7ccccc7)c([N+](=O)[O-])c6)cc5)CC4)C3)CC2)C(C)(C)C)cc1` (stereo partly drawn) [Compound 44, (2S,4R)-1-((2S)-2-(8-(4-((4′-chloro-6-((4-(4-(((4-(((R)-4-(cyclopropyl(2-hydroxyethyl)amino)-1-(phenylthio)butan-2-yl)amino)-3-nitrophenyl)sulfonyl)carbamoyl)phenyl)piperazin-1-yl)methyl)-4-methyl-2,3,4,5-tetrahydro-[1,1′-biphenyl]-4-yl)methyl)piperazin-1-yl)-8-oxooctanamido)-3,3-dimethylbutanoyl)-4-hydroxy-N—((S)-1-(4-(4-methylthiazol-5-yl)phenyl)ethyl)pyrrolidine-2-carboxamide]: the IC50 is 100 to 500 nM in assay [1] (setting [3]) and 20 to 100 nM in assay [2] (setting [4]).

What is called IC50 is the point on the concentration scale where inhibition reaches its midpoint.
